Measured values from US20250154124A1, “PROCESSES FOR THE PREPARATION OF N-(1-METHYLCYCLOPROPYL)-2-(3-PYRIDINYL)-2H-INDAZOLE-4-CARBOXAMIDE AND INTERMEDIATES THEREOF” (FMC CORPORATION, priority 2022, published 2025).

Legend:
[1] = Stable polymorph form screen (slurry experiments); format: physicochemical; details: between 2° C. and 73° C.
Procedure: Slurry experiments were conducted to identify the stable form at various conditions. In these experiments, saturated solutions in various solvents containing excess undissolved solids (starting with Form A+minor Form B) were stirred for extended durations. Slurries at room temperature (RT) and 2-8° C. were typically conducted for approximately 2 weeks, while slurries at 72-73° C. were stirred for a shorter duration (1 day) to minimize the potential for decomposition. […] The results are shown in the table 12 where the time and temperatures are approximate.

[2] = Form A and Form B interconversion (competitive) slurries; format: physicochemical; details: between 2° C. and 72° C.
Procedure: Relative thermodynamic stabilities of anhydrous/non-solvated Forms A and B were studied at 2-8° C., room temperature (RT) and at 71-72° C. via interconversion (competitive) slurries. In these slurries, a given solvent system was pre-saturated with compound 092 (Form A+minor Form B) at the stated temperature, and a portion of the liquid phase was filtered into a mixture of solids containing relatively equal amounts of Form A and Form B. Interconversion slurries at 2-8° C. and RT were allowed to stir for 22 days, while slurries at 71-72° C. stirred for shorter duration (2-4 days). […] The results are reported in table 13 below where: liquid phase for each slurry was pre-saturated using as-received Form A+minor Form B; solvent ratios are v/v; water activity values were calculated using UNIFAC calculator at RT; and times and temperatures are approximate.

relative stability of polymorph forms (slurry screen) [1]: more stable than Form B
relative thermodynamic stability of Forms A and B (competitive slurries) [2]: thermodynamically stable form
SMILES: CC1(NC(=O)c2cccc3nn(-c4cccnc4)cc23)CC1 [Form A, N-(1-methylcyclopropyl)-2-(3-pyridinyl)-2H-indazole 4-carboxamide]
